# Reference: the supplement of paper PMC10307832
# What was measured:
# Assay in all cases: relative viability (nuclei count vs DMSO), 5 days (fraction); higher = more cells survive
# [1] = compound: C[C@]1(c2nc3c(C(N)=O)cccc3[nH]2)CCCN1 [Veliparib] + CC1(C)CCC(c2ccc(Cl)cc2)=C(CN2CCN(c3ccc(C(=O)NS(=O)(=O)c4ccc(N[C@H](CCN5CCOCC5)CSc5ccccc5)c(S(=O)(=O)C(F)(F)F)c4)cc3)CC2)C1 [Navitoclax] (partner 0.5 µM)
# In short: (§1)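 Lung cancer cell lines, seeded in 1536-well plates, were treated the following day by pin tool with a single drug or with five library-drug doses (not always all listed) in √10 steps on top of a fixed anchor-drug dose. Cells were fixed and nuclei stained in one step after 5 days, and nuclei were counted. Relative viability is the nuclei count for treated wells divided by that for vehicle wells, reported as medians of duplicate plates.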
# [2] = compound: COC1=CC=C(C=C1)CN2C=CC3=C2C=C(C=C3)C(=O)NO + N=C(N)NC(=N)NCCc1ccccc1 [Phenformin] (partner 250 µM)
# In short: as §1
# [3] = compound: COC1=CC=C(C=C1)CN2C=CC3=C2C=C(C=C3)C(=O)NO + CC(=O)Nc1cccc(-n2c(=O)n(C3CC3)c(=O)c3c(Nc4ccc(I)cc4F)n(C)c(=O)c(C)c32)c1 [Trametinib] (partner 0.02 µM)
# In short: as §1
# [4] = compound: COC1=CC=C(C=C1)CN2C=CC3=C2C=C(C=C3)C(=O)NO + Nc1ncn([C@H]2C[C@H](O)[C@@H](CO)O2)c(=O)n1 [Decitabine] (partner 2 µM)
# In short: as §1
Cell Line,relative viability ([1]; first compound 0.02 µM),relative viability ([1]; first compound 0.06325 µM),relative viability ([1]; first compound 0.2 µM),relative viability ([1]; first compound 0.6325 µM),relative viability ([1]; first compound 2 µM),relative viability ([2]; first compound 0.08 µM),relative viability ([2]; first compound 0.253 µM),relative viability ([2]; first compound 0.8 µM),relative viability ([2]; first compound 2.53 µM),relative viability ([2]; first compound 8 µM),relative viability ([3]; first compound 0.08 µM),relative viability ([3]; first compound 0.253 µM),relative viability ([3]; first compound 0.8 µM),relative viability ([3]; first compound 2.53 µM),relative viability ([3]; first compound 8 µM),relative viability ([4]; first compound 0.08 µM),relative viability ([4]; first compound 0.253 µM),relative viability ([4]; first compound 0.8 µM),relative viability ([4]; first compound 2.53 µM),relative viability ([4]; first compound 8 µM)
NCI-H727,0.4,0.492,0.504,0.369,0.467,0.603,0.475,0.517,0.534,0.415,0.418,0.383,0.377,0.37,0.371,0.813,0.866,0.792,0.705,0.909
NCI-H2405,–,0.734,0.847,0.833,0.69,0.327,0.431,0.39,0.416,0.365,0.544,–,0.641,0.686,0.625,0.516,–,0.791,0.752,0.66
RERF-LC-KJ,1.05,–,1,0.852,0.754,0.362,0.412,0.484,0.408,0.347,0.865,1.06,0.827,0.892,0.809,0.74,0.675,0.645,0.738,0.599
NCI-H1734,0.811,0.807,0.76,0.745,0.866,–,0.413,0.386,0.392,0.383,–,0.739,0.725,0.716,0.732,–,0.507,0.527,0.534,0.48
HCC-827,1.03,0.937,0.971,0.944,1.02,0.427,0.382,0.386,0.417,0.394,0.539,0.537,0.528,0.533,0.514,0.292,0.271,0.356,0.287,0.308
NCI-H520,1.16,1.02,1.17,1.04,1.07,–,0.618,0.645,0.703,0.503,0.426,0.723,0.74,0.555,0.723,0.517,0.481,0.484,0.495,0.551
NCI-H1792,0.589,0.5,0.67,0.616,0.564,0.455,0.358,0.29,0.19,0.129,0.459,0.426,0.394,0.379,0.423,0.523,0.619,0.479,0.469,0.458
